Results reported in patent US11320350B2, “Method for agglutinating erythrocytes, method for separating erythrocytes, and hemagglutination reagent” (DENKA SEIKEN CO., LTD., priority 2016, dated 2022).

Tested on: erythrocytes in a whole blood sample
Test: hemagglutination evaluation test: whole blood sample added to hemagglutination reagent, rate of agglutination of erythrocytes visually evaluated
Assay type: cell-based
Set-up: key to Rate of agglutination: +++: Erythrocytes were instantaneously agglutinated into a sufficient size and the agglutinated erythrocytes were precipitated.; ++: Erythrocytes started to agglutinate after leaving to stand for a few seconds, and agglutinated erythrocytes were gradually precipitated.; +: Erythrocytes were agglutinated, but the agglutinates were very small and the agglutination was incomplete.; ±: Only very few erythrocytes were agglutinated.; −: Erythrocytes were hemolyzed without being agglutinated
Conditions: citric acid 100 mM in physiologic saline, pH3.0
Experimental: To 71 mL of distilled water, 10 mL of 10 w/v % sodium taurodeoxycholate hydrate (TDOC), 10 mL of 1 M citric acid, and 9 mL of 10 w/v % sodium chloride were added to prepare a solution containing 100 mM citric acid, 1% TDOC, and 0.9% sodium chloride as final concentrations (hemagglutination reagent). A solution was also prepared in the similar manner except that TDOC and/or sodium chloride were not added (hemagglutination reagent), and effects of the presence and absence of the cholic acid-based surfactant and the salt and the pH range on agglutination of erythrocytes were compared.
(§1) After adding 60 μL of a whole blood sample to 400 μL of the hemagglutination reagent, the rate of agglutination of erythrocytes was visually evaluated. The rate of agglutination was evaluated as +++, ++, +, or ± in order of rapidity based on the criteria described below. Hemolysis without agglutination was evaluated as −.
The pH of the hemagglutination reagent was measured using a desktop pH meter (HORIBA) (similarly in the following Examples and Comparative Examples).
Various cholic acid-based surfactants (1% by weight) and citric acid (100 mM) were added to a physiologic saline to prepare hemagglutination reagents (pH3.0) and their abilities to agglutinate erythrocytes were compared.
as §1, with “was” for “was visually”, “−. The following criteria were the same as those in Examples 1 to 4 and Comparative Examples 1-1 to 4-2.” for “−.”
Sodium taurodeoxycholate hydrate (TDOC) and citric acid (100 mM) were added to a physiologic saline to prepare hemagglutination reagents (pH3.0), and their abilities to agglutinate erythrocytes were compared in the concentration range of TDOC as shown in the table below.
as §1, with “was” for “was visually”, “criteria” for “criteria described”, “−. The following criteria were the same as those in Examples 1 to 7 and Comparative Examples 1-1 to 4-2.” for “−.”

C[C@H](CCC(=O)NCCS(=O)(=O)[O-])[C@H]1CC[C@H]2[C@@H]3CC[C@@H]4C[C@H](O)CC[C@]4(C)[C@H]3C[C@H](O)[C@]12C.O.[Na+] [TDOC, sodium taurodeoxycholate hydrate]
Rate of agglutination (Concentration of TDOC 0.1 wt %): +++ | Rate of agglutination (Concentration of TDOC 0.5 wt %): +++ | Rate of agglutination (Concentration of TDOC 1.0 wt %): +++ | Rate of agglutination (Concentration of TDOC 6.0 wt %): +++ | effect on hemagglutination (compared among cholic acid-based surfactants) (surfactant 1% by weight): most significant
